Like-named read-outs stand apart in the source and are kept apart here. Starred links: 1 amine or outer side, 2 acyl side, 3 side chain; linkers in the order of their positions; H or OH if unused. Non-standard residues stand in square brackets, D forms with d. Residues, ends and D or L forms follow the SMILES beside them. Groups on a side chain read outwards from the residue. *: point of attachment. C20 diacid = O=C(O)CCCCCCCCCCCCCCCCCCC(=O)*; γGlu = O=C(O)[C@H](CCC(=O)[*:2])N[*:1]; NMeI = CC[C@H](C)[C@H](NC)C(=O)O; Nle = CCCC[C@H](N)C(=O)O; AEEA = NCCOCCOCC(=O)O; Aib = CC(C)(N)C(=O)O

Here are results for five compounds from patent EP4810052A2, “HCRHR2 SELECTIVE POLYPEPTIDES” (Gubra A/S, priority 2023, dated 2026).

For one experiment, the target named is T1, hCRHR1 (Homo sapiens, UniProt P34998).
T1 sequence (P34998 24-415): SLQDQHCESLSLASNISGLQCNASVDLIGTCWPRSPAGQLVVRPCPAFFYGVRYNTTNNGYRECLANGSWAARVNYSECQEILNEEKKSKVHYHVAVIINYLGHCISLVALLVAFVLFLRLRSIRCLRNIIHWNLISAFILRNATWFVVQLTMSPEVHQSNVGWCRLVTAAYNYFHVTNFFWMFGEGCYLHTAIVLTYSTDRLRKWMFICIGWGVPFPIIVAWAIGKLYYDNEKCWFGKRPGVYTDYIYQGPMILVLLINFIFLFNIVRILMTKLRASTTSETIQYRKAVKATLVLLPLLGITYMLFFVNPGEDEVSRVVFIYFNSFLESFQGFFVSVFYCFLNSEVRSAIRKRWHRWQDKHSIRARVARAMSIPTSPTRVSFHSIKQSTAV
Put plainly: HTRF cAMP assay, determination of hCRHR1 potency (peptide libraries 5 conc., purified peptides 11 conc.). Type of experiment: cell-based. In outline: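 CHO-K1 cells stably expressing human CRHR1, thawed from frozen stocks just before use, were stimulated in suspension with agonist peptides. cAMP was measured by HTRF competitive immunoassay (cryptate anti-cAMP antibody vs d2-cAMP).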
(In general: In TR-FRET formats the signal depends on donor and acceptor labels being close together.)

For another experiment, the target named is T2, hCRHR2 (Homo sapiens, UniProt Q13324).
T2 sequence (Q13324 1-411): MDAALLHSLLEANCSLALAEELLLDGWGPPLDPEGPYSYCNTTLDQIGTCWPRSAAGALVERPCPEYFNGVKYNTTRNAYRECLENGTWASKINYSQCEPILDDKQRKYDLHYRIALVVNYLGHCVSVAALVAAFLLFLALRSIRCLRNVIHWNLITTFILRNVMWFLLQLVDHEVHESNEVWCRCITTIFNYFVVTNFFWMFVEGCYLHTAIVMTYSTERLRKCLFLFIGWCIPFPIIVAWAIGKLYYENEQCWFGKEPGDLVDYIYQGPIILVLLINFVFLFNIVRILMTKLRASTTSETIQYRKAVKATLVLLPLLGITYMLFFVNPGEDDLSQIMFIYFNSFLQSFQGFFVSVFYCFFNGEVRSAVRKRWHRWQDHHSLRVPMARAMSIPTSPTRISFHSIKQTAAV
Description: HTRF cAMP assay, determination of hCRHR2 potency (peptide libraries 5 conc., purified peptides 11 conc.). Type of experiment: cell-based. The method in brief: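 Potency was read as cAMP accumulation in a stable CHO-K1 line expressing human CRHR2, used in suspension right after thawing. Detection relied on energy transfer from antibody-bound cryptate to d2-cAMP.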

The mark [1] stands for this setting: library peptides, matched molecular pairs L vs Nle in position X^38, read-out: Potency hCRHR1 pEC50 (converted).
Where [2] appears, read: library peptides, matched molecular pairs L vs Nle in position X^38, read-out: Potency hCRHR2 pEC50 (converted).

Take `CC[C@H](C)[C@H](N)C(=O)N[C@H](C(=O)N[C@@H](CC(C)C)C(=O)N[C@@H](CO)C(=O)N[C@@H](CC(C)C)C(=O)N[C@@H](CC(=O)O)C(=O)N[C@H](C(=O)N1CCC[C@H]1C(=O)N[C@H](C(=O)NCC(=O)N[C@@H](CC(C)C)C(=O)N[C@@H](CC(C)C)C(=O)N[C@@H](CCC(N)=O)C(=O)N[C@H](C(=O)N[C@@H](CC(C)C)C(=O)N[C@@H](CC(C)C)C(=O)N[C@@H](CCC(=O)O)C(=O)N[C@@H](CCC(N)=O)C(=O)N[C@@H](C)C(=O)N[C@@H](CCCNC(=N)N)C(=O)N[C@@H](C)C(=O)N[C@@H](CCCNC(=N)N)C(=O)N[C@@H](CCC(N)=O)C(=O)N[C@@H](CC(C)C)C(=O)N[C@@H](CCCNC(=N)N)C(=O)N[C@@H](CCC(=O)O)C(=O)N[C@@H](CCC(N)=O)C(=O)N[C@@H](C)C(=O)N[C@@H](CCCCNC(=O)COCCOCCNC(=O)COCCOCCNC(=O)CC[C@H](NC(=O)CC[C@H](NC(=O)CCCCCCCCCCCCCCCCCCC(=O)O)C(=O)O)C(=O)O)C(=O)N[C@H](C(=O)N[C@@H](CC(N)=O)C(=O)N[C@@H](C)C(=O)N[C@@H](CCC(=O)O)C(=O)N[C@H](C(=O)N[C@@H](CC(C)C)C(=O)N[C@@H](C)C(=O)N[C@@H](CCC(=O)O)C(=O)N[C@H](C(N)=O)C(C)C)[C@@H](C)CC)[C@@H](C)O)[C@@H](C)CC)[C@@H](C)CC)C(C)C)C(C)C` [compound 72] (H-IVLSLDVPIGLLQILLEQARARQLREQAK([AEEA-AEEA-γGlu-γGlu-C20 diacid])TNAEILAEV-NH2): the values for the EC50 on hCRHR1 (setting [1]) and on hCRHR2 (setting [2]) were 251 nM and 0.316 nM, respectively.
For `CCCC[C@H](NC(=O)[C@@H](NC(=O)[C@H](CCC(=O)O)NC(=O)[C@H](C)NC(=O)[C@H](CC(N)=O)NC(=O)[C@@H](NC(=O)[C@H](CCCCNC(=O)COCCOCCNC(=O)COCCOCCNC(=O)CC[C@H](NC(=O)CC[C@H](NC(=O)CCCCCCCCCCCCCCCCCCC(=O)O)C(=O)O)C(=O)O)NC(=O)[C@H](C)NC(=O)[C@H](CCC(=O)O)NC(=O)[C@H](CCC(=O)O)NC(=O)[C@H](CCCNC(=N)N)NC(=O)[C@H](CC(C)C)NC(=O)[C@H](C)NC(=O)[C@H](CCCNC(=N)N)NC(=O)[C@H](C)NC(=O)[C@H](CCCNC(=N)N)NC(=O)[C@H](C)NC(=O)[C@H](CCC(N)=O)NC(=O)[C@H](CCC(=O)O)NC(=O)[C@H](CC(C)C)NC(=O)[C@H](CC(C)C)NC(=O)[C@@H](NC(=O)[C@H](CCC(N)=O)NC(=O)[C@H](CC(C)C)NC(=O)[C@H](CC(C)C)NC(=O)CNC(=O)[C@@H](NC(=O)[C@@H]1CCCN1C(=O)[C@@H](NC(=O)[C@H](CC(=O)O)NC(=O)[C@H](CC(C)C)NC(=O)[C@H](CO)NC(=O)[C@H](CC(C)C)NC(=O)[C@@H](NC(=O)[C@@H](N)[C@@H](C)CC)C(C)C)C(C)C)[C@@H](C)CC)[C@@H](C)CC)[C@@H](C)O)[C@@H](C)CC)C(=O)N[C@@H](C)C(=O)N[C@@H](CCC(=O)O)C(=O)N[C@H](C(N)=O)C(C)C` [compound 51] (H-IVLSLDVPIGLLQILLEQARARALREEAK([AEEA-AEEA-γGlu-γGlu-C20 diacid])TNAEI[Nle]AEV-NH2), the EC50 at hCRHR1 (setting [1]) was 126000 nM; at hCRHR2 (setting [2]), 0.794 nM.
Regarding `CCCC[C@H](NC(=O)[C@@H](NC(=O)[C@H](CCC(=O)O)NC(=O)C(C)(C)NC(=O)[C@H](CC(N)=O)NC(=O)[C@@H](NC(=O)[C@H](CCCCNC(=O)COCCOCCNC(=O)COCCOCCNC(=O)CC[C@H](NC(=O)CC[C@H](NC(=O)CCCCCCCCCCCCCCCCCCC(=O)O)C(=O)O)C(=O)O)NC(=O)[C@H](C)NC(=O)[C@H](CCC(N)=O)NC(=O)[C@H](CCC(=O)O)NC(=O)[C@H](CCCNC(=N)N)NC(=O)[C@H](C)NC(=O)[C@H](C)NC(=O)[C@H](CCCNC(=N)N)NC(=O)[C@H](C)NC(=O)[C@H](CCCNC(=N)N)NC(=O)[C@H](C)NC(=O)[C@H](CCC(N)=O)NC(=O)[C@@H](NC(=O)[C@H](CC(C)C)NC(=O)[C@H](CC(C)C)NC(=O)[C@@H](NC(=O)[C@H](CCC(N)=O)NC(=O)[C@H](CC(C)C)NC(=O)[C@H](CC(C)C)NC(=O)CNC(=O)[C@@H](NC(=O)[C@@H]1CCCN1C(=O)[C@@H](NC(=O)[C@H](CC(=O)O)NC(=O)[C@H](CC(C)C)NC(=O)[C@H](CO)NC(=O)[C@H](CC(C)C)NC(=O)[C@@H](NC(=O)[C@@H](NC)[C@@H](C)CC)C(C)C)C(C)C)[C@@H](C)CC)[C@@H](C)CC)C(C)C)[C@@H](C)O)[C@@H](C)CC)C(=O)N[C@@H](C)C(=O)N[C@@H](CCC(=O)O)C(=O)N[C@H](C(N)=O)C(C)C` [compound 231] (H-[NMeI]VLSLDVPIGLLQILLVQARARAAREQAK([AEEA-AEEA-γGlu-γGlu-C20 diacid])TN[Aib]EI[Nle]AEV-NH2), the EC50 was 2510 nM on hCRHR1 (Table 4, library peptides having X^38 = Nle, read-out: hCRHR1 pEC50 (converted)) and 0.0631 nM at hCRHR2 (Table 4, library peptides having X^38 = Nle, read-out: hCRHR2 pEC50 (converted)).
For `CC[C@H](C)[C@H](N)C(=O)N[C@H](C(=O)N[C@@H](CC(C)C)C(=O)N[C@@H](CO)C(=O)N[C@@H](CC(C)C)C(=O)N[C@@H](CC(=O)O)C(=O)N[C@H](C(=O)N1CCC[C@H]1C(=O)N[C@H](C(=O)NCC(=O)N[C@@H](CC(C)C)C(=O)N[C@@H](CC(C)C)C(=O)N[C@@H](CCC(N)=O)C(=O)N[C@H](C(=O)N[C@@H](CC(C)C)C(=O)N[C@@H](CC(C)C)C(=O)N[C@@H](CCC(=O)O)C(=O)N[C@@H](CCC(N)=O)C(=O)N[C@@H](C)C(=O)N[C@@H](CCCNC(=N)N)C(=O)N[C@@H](C)C(=O)N[C@@H](CCC(N)=O)C(=O)N[C@@H](C)C(=O)N[C@@H](C)C(=O)N[C@@H](CCCNC(=N)N)C(=O)N[C@@H](CCC(=O)O)C(=O)N[C@@H](CCCNC(=N)N)C(=O)N[C@@H](C)C(=O)N[C@@H](CCCCNC(=O)COCCOCCNC(=O)COCCOCCNC(=O)CC[C@H](NC(=O)CC[C@H](NC(=O)CCCCCCCCCCCCCCCCCCC(=O)O)C(=O)O)C(=O)O)C(=O)N[C@H](C(=O)N[C@@H](CC(N)=O)C(=O)N[C@@H](C)C(=O)N[C@@H](CCC(=O)O)C(=O)N[C@H](C(=O)N[C@@H](CC(C)C)C(=O)N[C@@H](C)C(=O)N[C@@H](CCC(=O)O)C(=O)N[C@H](C(N)=O)C(C)C)[C@@H](C)CC)[C@@H](C)O)[C@@H](C)CC)[C@@H](C)CC)C(C)C)C(C)C` [compound 48] (H-IVLSLDVPIGLLQILLEQARAQAARERAK([AEEA-AEEA-γGlu-γGlu-C20 diacid])TNAEILAEV-NH2), the EC50 at hCRHR1 (setting [1]) was 20000 nM; on hCRHR2 (setting [2]) it was 0.398 nM.
On to `CC[C@H](C)[C@H](N)C(=O)N[C@H](C(=O)N[C@@H](CC(C)C)C(=O)N[C@@H](CO)C(=O)N[C@@H](CC(C)C)C(=O)N[C@@H](CC(=O)O)C(=O)N[C@H](C(=O)N1CCC[C@H]1C(=O)N[C@H](C(=O)NCC(=O)N[C@@H](CC(C)C)C(=O)N[C@@H](CC(C)C)C(=O)N[C@@H](CCC(N)=O)C(=O)N[C@H](C(=O)N[C@@H](CC(C)C)C(=O)N[C@@H](CC(C)C)C(=O)N[C@@H](CCC(=O)O)C(=O)N[C@@H](CCC(N)=O)C(=O)N[C@@H](C)C(=O)N[C@@H](CCCNC(=N)N)C(=O)N[C@@H](C)C(=O)N[C@@H](CCCNC(=N)N)C(=O)N[C@@H](C)C(=O)N[C@@H](C)C(=O)N[C@@H](CCCNC(=N)N)C(=O)N[C@@H](CCC(=O)O)C(=O)N[C@@H](CCC(N)=O)C(=O)N[C@@H](C)C(=O)N[C@@H](CCCCNC(=O)COCCOCCNC(=O)COCCOCCNC(=O)CC[C@H](NC(=O)CC[C@H](NC(=O)CCCCCCCCCCCCCCCCCCC(=O)O)C(=O)O)C(=O)O)C(=O)N[C@H](C(=O)N[C@@H](CC(N)=O)C(=O)N[C@@H](C)C(=O)N[C@@H](CCC(=O)O)C(=O)N[C@H](C(=O)N[C@@H](CC(C)C)C(=O)N[C@@H](C)C(=O)N[C@@H](CCC(=O)O)C(=O)N[C@H](C(N)=O)[C@@H](C)CC)[C@@H](C)CC)[C@@H](C)O)[C@@H](C)CC)[C@@H](C)CC)C(C)C)C(C)C` [compound 68] (H-IVLSLDVPIGLLQILLEQARARAAREQAK([AEEA-AEEA-γGlu-γGlu-C20 diacid])TNAEILAEI-NH2), for which the EC50 on hCRHR1 (setting [1]) was 63100 nM; on hCRHR2 (setting [2]), 0.251 nM.
